Source: patent publication EP0167943A2, “Benzimidazole derivatives, process for their preparation, and their use as pharmaceuticals” (BEECHAM GROUP PLC, priority 1984, dated 1986)

Tested on: gastric acid secretion
Experiment: perfused rat stomach preparation (histamine-stimulated acid secretion, perfusate pH)
Format: in vivo, male Wistar rats
Details: bolus intravenous injection, maximal reduction in hydrogen-ion concentration as percentage of control, histamine infusion, urethane anaesthetised rat
Experimental: The ability of the compounds of the invention to modify the pH of gastric acid secretion was investigated as follows:
The perfused rat stomach preparation
The lumen of the stomach of male Wistar rats (approximately 200 g bodyweight) was perfused, via a cannula designed to reduce the dead space of the stomach, with 5% glucose solution (37^00) at the rate of 3 ml/min. The perfusate was forced over the surface of the secretory mucosa only, the antrum being excluded. The effluent then passed over a microflow type glass pH electrode via collecting funnel situated in the non-glandular forestomach.
The secretagogue histamine was administered as a constant intravenous infusion to produce a steady rate of acid secretion. Test compounds were administered in solution as bolus intravenous injections and any effect on the pH of the perfusate noted. The perfusate pH was recorded on a potentiometric recorder and anti-secretory responses were measured in terms of the maximal reduction in hydrogen-ion concentration expressed as a percentage of the 'control' concentrations.

2-[(4-[3,5-dichlorobenzyloxy]-3-methylpyrid-2-yl)methyl sulphinyl]benzimidazole [Example 8b]
Inhibition (dose 2 (µmol/kg)): 80%

Cc1c(OCc2ccccc2)ccnc1C[S+]([O-])c1nc2ccccc2[nH]1 (centres unmarked) [Example 1b, 2-[(4-Benzyloxy-3-methylpyrid-2-yl)methylsulphinyl]-benzimidazole]
Inhibition (dose 0.5 µmol/kg): 82%

COc1ccc(COc2ccnc(C[S+]([O-])c3nc4ccccc4[nH]3)c2C)cc1 (centres unmarked) [Example 7b, 2-[(4-[4-methoxybenzyloxy]-3-methylpyrid-2-yl)methylsulphinyl]benzimidazole]
Inhibition (dose 2 (µmol/kg)): 86%

Cc1c(OCc2ccc(F)cc2)ccnc1C[S+]([O-])c1nc2ccccc2[nH]1 (centres unmarked) [Example 10b, 2-[(4-[4-Fluorobenzyloxy]-3-methylpyrid-2-yl)methylsulphinyl]benzimidazole]
Inhibition (dose 1 (µmol/kg)): 80%

[O-][S+](Cc1cc(OCCc2ccccc2)ccn1)c1nc2ccccc2[nH]1 (centres unmarked) [Example 18b, 2-[(4'-Phenethyloxypyrid-2-yl)methylsulphinyl]benzimidazole]
Inhibition (dose 2 (µmol/kg)): 100%

Cc1c(Oc2ccccc2)ccnc1C[S+]([O-])c1nc2ccccc2[nH]1 (centres unmarked) [Example 20b, 2-[(3-Methyl-4-phenoxypyrid-2-yl)methylsulphinyl]-benzimidazole]
Inhibition (dose 2 (µmol/kg)): 72%

[O-][S+](Cc1cc(OCc2ccc(F)cc2)ccn1)c1nc2ccccc2[nH]1 (centres unmarked) [Example 21b, 2-[(4-(4-Fluorobenzyloxy)pyrid-2-yl)methylsuphinyl]-benzimidazole]
Inhibition (dose 2 (µmol/kg)): 100%

Cc1cnc(C[S+]([O-])c2nc3ccccc3[nH]2)cc1OCc1ccccc1 (centres unmarked) [Example 24b]
Inhibition (dose 2.5 (µmol/kg)): 91%
